In patent publication EP4722219A1 (Gan & Lee Pharmaceuticals Co., Ltd., priority 2023, dated 2024):
One block for each compound: values may come before it.

What was measured:
SMARCA2 [1] = molecular target: T1, SMARCA2 (Homo sapiens, UniProt P51531); assay: SMARCA2 degradation in HeLa cells (Western blot); type: cell-based; parameters: endogenous in cells; conditions: 4 hours
Description: (§1) Test Example 10 Degradation rate (%) of SMARCA2/4 by the PROTAC compounds of the present invention in HeLa cells and SW1573 cells
(§2) HeLa cells were seeded at 1.2 x 10^5 cells/well in a 6-well plate. 2 mL of EMEM medium supplemented with 10% FBS was added to each well and the culture dish was incubated overnight to allow the cells to adhere. The next day, 1 µL of 160 µM and 1 µL of 2 µM compound were added to the corresponding wells, resulting in final compound concentrations of 80 nM and 1 nM, respectively, and a final DMSO concentration of 0.05%. The cells were returned to the incubator and incubated for another 4 hours.
(§3) After 4 hours, cells were harvested, the culture medium was aspirated, and the cells were rinsed once with 1 mL/well PBS. The PBS was aspirated, and 40 µL/well of RIPA lysis buffer containing protease inhibitors was added. After lysis and centrifugation, total protein extracts were obtained, and protein concentration in the extracts was determined by BCA assay. Protein electrophoresis was performed by SDS-PAGE, followed by constant voltage electrophoresis at 100 V for 60 minutes and the protein was then transferred to a PVDF membrane. The PVDF membrane was blocked in 5% skim milk powder for 1 hour at room temperature. Primary antibodies (SMARCA2: CST#11966S, SMARCA4: CST#49360S, GAPDH: CST#5174S) were added and incubated overnight at 4°C. After washing the membrane, secondary antibodies were added and incubated at room temperature for 1 hour (protected from the light). After washing, the membrane was exposed using an Odyssey luminometer. Grayscale analysis of bands was performed using Image Studio software.
(§4) The degradation rate (%) of SMARCA2/4 by the PROTAC compounds of the present invention in HeLa cells and SW1573 cells is shown in Table 10. Table 10 Degradation rate of SMARCA2/4 by PROTAC compounds of the present invention in HeLa cells and SW1573 cells (%)

SMARCA2 [2] = molecular target: T1, SMARCA2; assay: SMARCA2 degradation in SW1573 cells (Western blot); type: cell-based; parameters: endogenous in cells; host or cells: SW1573; conditions: 24 hours
Description: as §1
as §2, with “SW1573” for “HeLa”, “2x10^5Cells/well” for “1.2 x 10^5 cells/well”, “and” for “and the culture dish”, “cell attachment.” for “the cells to adhere.”, “wells for treatment,” for “wells,”, “24” for “4”
as §3, with “After 24” for “After 4”, “the” for “the culture”
as §4

SMARCA4 = SMARCA4 (Homo sapiens, UniProt P51532); assay: SMARCA4 degradation in SW1573 cells (Western blot); type: cell-based; parameters: endogenous in cells; host or cells: SW1573; conditions: 24 hours, read-out: Degradation rate of SMARCA4 in SW1573 cells (%)
Description: SW1573 cells were seeded at 2x10^5Cells/well in a 6-well plate. 2 mL of EMEM medium supplemented with 10% FBS was added to each well and was incubated overnight to allow cell attachment. […] The cells were returned to the incubator and incubated for another 24 hours.
as §3, with “After 24” for “After 4”, “the” for “the culture”, “temperature. […]” for “temperature. Primary antibodies (SMARCA2: CST#11966S, SMARCA4: CST#49360S, GAPDH: CST#5174S) were added and incubated overnight at 4°C.”
as §4

CRBN protein = CRBN protein (Homo sapiens, UniProt Q96SW2); assay: Binding activity to E3 ubiquitin ligase CRBN (HTRF competitive binding kit, Thalidomide-Red); conditions: competition with XL665-labeled thalidomide for GST-tagged CRBN protein, HTRF, 3 hours at room temperature; read-out: IC50
Source text: Binding activity of the E3 ligase inhibitor disclosed in the present invention to E3 ubiquitin ligase CRBN
CRBN binding activity test kit (CEREBLON BINDING KITS (PE, 64BD CRBN PEG).
The detection is based on homogeneous time-resolved fluorescence (HTRF) technology.
This kit uses a europium-labeled GST antibody (GST Eu Cryptate Antibody) as the donor and XL665-labeled thalidomide (Thalidomide-Red reagent) as the receptor. The donor binds to the GST-tagged CRBN protein.
The donor and receptor were each diluted 50-fold using the buffer provided in the kit (PROTAC binding buffer 1). The CRBN protein was diluted 45-fold. An 8mM solution of the compound disclosed herein was diluted 10-fold using the diluent provided in the kit (1X diluent), followed by 7 successive 5-fold serial dilutions of the resulting solution.
The ratio of the acceptor and donor emission signals was calculated for each individual well.
IC50 values was calculated based on compound concentration, Ratio, and coefficient of variation using GraphPad Prism.

Structure (SMILES): Cn1c(=O)n(C2CCC(=O)NC2=O)c2cc3c(cc21)C1(CCN(C[C@H]2CC[C@H](n4cc(-c5cc(-c6ccccc6O)nnc5N)cn4)CC2)CC1)CO3 (some centres unmarked) [SM-P-36]
- Degradation rate of SMARCA2 in HeLa cells (%) (SMARCA2 [1]; 1 nM): 99%
- Degradation rate of SMARCA2 in HeLa cells (%) (SMARCA2 [1]; 80 nM): 97%
- Degradation rate of SMARCA2 in SW1573 cells (%) (SMARCA2 [2]; 1 nM): 100%
- Degradation rate of SMARCA2 in SW1573 cells (%) (SMARCA2 [2]; 80 nM): 98%

Structure (SMILES): Cn1c(=O)n(C2CCC(=O)NC2=O)c2ccc3c(c21)OCC31CCN(C[C@H]2CC[C@H](Cn3cc(-c4cc(-c5ccccc5O)nnc4N)cn3)CC2)CC1 (some centres unmarked) [SM-P-29, 3-(1'-(((1r,4r)-4-((4-(3-amino-6-(2-hydroxyphenyl)pyridazin-4-yl)-1H-pyrazol-1-yl)methyl)cyclohexyl)methyl)-1-methyl-2-oxo-1,2-dihydro-3H,7H-spiro[benzofuro[6,7-d]imidazole-6,4'-piperidin]-3-yl)piperidine-2,6-dione]
- Degradation rate of SMARCA2 in HeLa cells (%) (SMARCA2 [1]; 1 nM): 100%
- Degradation rate of SMARCA2 in HeLa cells (%) (SMARCA2 [1]; 80 nM): 90%
- Degradation rate of SMARCA2 in SW1573 cells (%) (SMARCA2 [2]; 1 nM): 100%
- Degradation rate of SMARCA2 in SW1573 cells (%) (SMARCA2 [2]; 80 nM): 99%

- Degradation rate of SMARCA2 in SW1573 cells (%) (SMARCA2 [2]; 1 nM): 16%
- Degradation rate of SMARCA2 in SW1573 cells (%) (SMARCA2 [2]; 80 nM): 25%
- Dmax at 0.001 µM (SMARCA4; 1 nM): -32%
- Dmax at 0.08 µM (SMARCA4; 80 nM): -34%
Structure (SMILES): CN(C(=O)c1ccc2c(c1)OC[C@H]1CN(C3CC4(CCC(C#Cc5cc(-c6ccccc6O)nnc5N)CC4)C3)CCN21)[C@H]1CCC(=O)NC1=O (some centres unmarked) [SM-P-18]

Structure (SMILES): COc1cc2c(cc1C(=O)N[C@H]1CCC(=O)NC1=O)C1(CCN(C3CC4(CCC(C#Cc5cc(-c6ccccc6O)nnc5N)CC4)C3)CC1)CO2 (stereo partly drawn) [SM-P-14, (S)-1'-(7-((3-amino-6-(2-hydroxyphenyl)pyridazin-4-yl)ethynyl)spiro[3.5]nonan-2-yl)-N-(2,6-dioxopiperidin-3-yl)-6-methoxy-2H-spiro[benzofuran-3,4'-piperidin]-5-carboxamide]
- Degradation rate of SMARCA2 in HeLa cells (%) (SMARCA2 [1]; 1 nM): -7%
- Degradation rate of SMARCA2 in HeLa cells (%) (SMARCA2 [1]; 80 nM): -3%
- Degradation rate of SMARCA2 in SW1573 cells (%) (SMARCA2 [2]; 1 nM): 22%
- Degradation rate of SMARCA2 in SW1573 cells (%) (SMARCA2 [2]; 80 nM): 14%

Structure (SMILES): Cn1c(=O)n(C2CCC(=O)NC2=O)c2cc3c(cc21)C1(CCN(C2CC4(CCC(C#Cc5cc(-c6ccccc6O)nnc5N)CC4)C2)CC1)CO3 (centres unmarked) [SM-P-4, 3-(1'-(7-((3-amino-6-(2-hydroxyphenyl)pyridazin-4-yl)ethynyl)spiro[3.5]nonan-2-yl)-1-methyl-2-oxo-1,2-dihydro-3H,6H-spiro[benzofuro[5,6-d]imidazole-7,4'-piperidin]-3-yl)piperidine-2,6-dione]
- Degradation rate of SMARCA2 in HeLa cells (%) (SMARCA2 [1]; 1 nM): 100%
- Degradation rate of SMARCA2 in HeLa cells (%) (SMARCA2 [1]; 80 nM): 99%
- Degradation rate of SMARCA2 in SW1573 cells (%) (SMARCA2 [2]; 1 nM): 100%
- Degradation rate of SMARCA2 in SW1573 cells (%) (SMARCA2 [2]; 80 nM): 100%

Structure (SMILES): Nc1nnc(-c2ccccc2O)cc1C#CC1CCC2(CC1)CC(N1CCC3(CC1)COc1cc(C(=O)N[C@H]4CCC(=O)NC4=O)c(F)cc13)C2 (some centres unmarked) [SM-P-8]
- Degradation rate of SMARCA2 in HeLa cells (%) (SMARCA2 [1]; 1 nM): 28%
- Degradation rate of SMARCA2 in HeLa cells (%) (SMARCA2 [1]; 80 nM): 64%
- Degradation rate of SMARCA2 in SW1573 cells (%) (SMARCA2 [2]; 1 nM): 9%
- Degradation rate of SMARCA2 in SW1573 cells (%) (SMARCA2 [2]; 80 nM): 61%

Structure (SMILES): Cn1c(=O)n(C2CCC(=O)NC2=O)c2cc3c(cc21)C1(CCN(C2CN(c4cc(-c5ccccc5O)nnc4N)C2)CC1)CO3 (centres unmarked) [SM-P-38, 3-(1'-(1-(3-amino-6-(2-hydroxyphenyl)pyridazin-4-yl)azetidin-3-yl)-1-methyl-2-oxo-1,2-dihydro-3H,6H-spiro[benzofuro[5,6-d]imidazole-7,4'-piperidin]-3-yl)piperidine-2,6-dione]
- Degradation rate of SMARCA2 in HeLa cells (%) (SMARCA2 [1]; 1 nM): -6%
- Degradation rate of SMARCA2 in HeLa cells (%) (SMARCA2 [1]; 80 nM): 10%
- Degradation rate of SMARCA2 in SW1573 cells (%) (SMARCA2 [2]; 1 nM): 24%
- Degradation rate of SMARCA2 in SW1573 cells (%) (SMARCA2 [2]; 80 nM): 29%

Structure (SMILES): Cn1c(=O)n(C2CCC(=O)NC2=O)c2ccc3c(c21)OCC31CCN(C[C@H]2CC[C@H](n3cc(-c4cc(-c5ccccc5O)nnc4N)cn3)CC2)CC1 (some centres unmarked) [SM-P-35]
- Degradation rate of SMARCA2 in HeLa cells (%) (SMARCA2 [1]; 1 nM): 100%
- Degradation rate of SMARCA2 in HeLa cells (%) (SMARCA2 [1]; 80 nM): 99%
- Degradation rate of SMARCA2 in SW1573 cells (%) (SMARCA2 [2]; 1 nM): 100%
- Degradation rate of SMARCA2 in SW1573 cells (%) (SMARCA2 [2]; 80 nM): 100%

Structure (SMILES): Cn1c(=O)n(C2CCC(=O)NC2=O)c2cc3c(cc21)C1(CCN(C[C@H]2CC[C@H](Cn4cc(-c5cc(-c6ccccc6O)nnc5N)cn4)CC2)CC1)CO3 (some centres unmarked) [SM-P-30, 3-(1'-(((1r,4r)-4-((4-(3-amino-6-(2-hydroxyphenyl)pyridazin-4-yl)-1H-pyrazol-1-yl)methyl)cyclohexyl)methyl)-1-methyl-2-oxo-1,2-dihydro-3H,6H-spiro[benzofuro[5,6-d]imidazole-7,4'-piperidin]-3-yl)piperidine-2,6-dione]
- Degradation rate of SMARCA2 in HeLa cells (%) (SMARCA2 [1]; 1 nM): 99%
- Degradation rate of SMARCA2 in HeLa cells (%) (SMARCA2 [1]; 80 nM): 90%
- Degradation rate of SMARCA2 in SW1573 cells (%) (SMARCA2 [2]; 1 nM): 99%
- Degradation rate of SMARCA2 in SW1573 cells (%) (SMARCA2 [2]; 80 nM): 97%

Structure (SMILES): Cn1c(=O)n(C2CCC(=O)NC2=O)c2ccc3c(c21)OCC31CCN(C2CC3(CCC(C#Cc4cc(-c5ccccc5O)nnc4N)CC3)C2)CC1 (centres unmarked) [SM-P-26, 3-(1'-(7-((3-amino-6-(2-hydroxyphenyl)pyridazin-4-yl)ethynyl)spiro[3.5]nonan-2-yl)-1-methyl-2-oxo-1,2-dihydro-3H,7H-spiro[benzofuro[6,7-d]imidazole-6,4'-piperidin]-3-yl)piperidine-2,6-dione]
- Degradation rate of SMARCA2 in HeLa cells (%) (SMARCA2 [1]; 1 nM): 100%
- Degradation rate of SMARCA2 in HeLa cells (%) (SMARCA2 [1]; 80 nM): 99%
- Degradation rate of SMARCA2 in SW1573 cells (%) (SMARCA2 [2]; 1 nM): 100%
- Degradation rate of SMARCA2 in SW1573 cells (%) (SMARCA2 [2]; 80 nM): 99%

- IC50 (CRBN protein): 5.46 µM
Structure (SMILES): O=C1CCC(Nc2ccc3c(c2)OCC[C@H]2CNCCN32)C(=O)N1 (some centres unmarked) [Compound C12]

Structure (SMILES): Cn1c(=O)n(C2CCC(=O)NC2=O)c2ccc3c(c21)OCC31CCN(C2CN(c3cc(-c4ccccc4O)nnc3N)C2)CC1 (centres unmarked) [SM-P-37, 3-(1'-(1-(3-amino-6-(2-hydroxyphenyl)pyridazin-4-yl)azetidin-3-yl)-1-methyl-2-oxo-1,2-dihydro-3H,7H-spiro[benzofuro[6,7-d]imidazole-6,4'-piperidin]-3-yl)piperidine-2,6-dione]
- Degradation rate of SMARCA2 in HeLa cells (%) (SMARCA2 [1]; 1 nM): 24%
- Degradation rate of SMARCA2 in HeLa cells (%) (SMARCA2 [1]; 80 nM): 33%

Structure (SMILES): Nc1nnc(-c2ccccc2O)cc1C#CC1CCC2(CC1)CC(N1CCC3(CC1)COc1cc(F)c(C(=O)N[C@H]4CCC(=O)NC4=O)cc13)C2 (some centres unmarked) [SM-P-21]
- Degradation rate of SMARCA2 in HeLa cells (%) (SMARCA2 [1]; 1 nM): 15%
- Degradation rate of SMARCA2 in HeLa cells (%) (SMARCA2 [1]; 80 nM): 4%
- Degradation rate of SMARCA2 in SW1573 cells (%) (SMARCA2 [2]; 1 nM): -12%
- Degradation rate of SMARCA2 in SW1573 cells (%) (SMARCA2 [2]; 80 nM): 14%
